# In publication PMC7615677 (Science translational medicine, 2023):
# Like-named read-outs stand apart in the source and are kept apart here.
# Columns and labels:
# L. donovani = experiment: Leishmania intramacrophage in vitro assay; format: cell-based
# Experimental: A drug incubation period of 96 h was applied, and cells were stained with Giemsa for microscopic evaluation of cellular amastigote burdens. Percentage reduction compared to the burden in the infected non-treated control wells was used as a measure for drug activity.
# Alternatively, differentiated macrophage host cells derived from THP-1 (human leukemia monocytes) were infected at a multiplicity of infection of 1:2.5 (ratio of host cells to parasites) with L. donovani MHOM/IN/80/DD8 culture-maintained promastigotes. L. donovani MHOM/IN/80/DD8 (ATCC 50212) promastigote parasites and THP-1 (ATCC TIB202) cells were maintained as previously described ([20]). A drug incubation period of 96 h was applied, plates fixed with 4% paraformaldehyde and stained with SYBR® green and CellMask Deep Red™ (ThermoFisher Scientific). Images were acquired on an Opera high-content imaging system (PerkinElmer). Healthy host (THP-1) cells and intracellular amastigotes were identified using CellMask Deep Red cytoplasmic and SYBR green nuclear area and intensities, with intracellular parasites identified based on spot detection algorithms (size and intensity measurements used to define parasite nucleus) to determine the number of parasites present within THP-1 host cells. An infected cell was defined as a host cell containing >3 parasites within the cytoplasm boundary. Compound activity was determined based on the number of infected cells normalized to the positive (10μM DNDI-1044) and negative (0.4% DMSO) controls. Non-linear sigmoidal dose-response curves with no constraints were plotted, and IC50 was calculated. The IC50s were calculated from two independent experiments.
# [1] = tested on: L. donovani MHOM/ET/67/L82 (synonym HU3); experiment: Acute mouse infection model (VL); format: in vivo, BALB/c mice; details: 12.5 mg/kg bid or higher, 5-day dosing
# Experimental: (§1) Female 8−10-week-old BALB/c mice were infected with 2 x 10^7 L. donovani MHOM/ET/67/L82 (synonym HU3) or L. infantum MHOM/MA67/ITMAP263 amastigotes on day 0 and dispatched in groups of five individuals. […] Five days following end of treatment, all mice were sacrificed, and parasite burden was determined from smears of liver sections. Efficacy was expressed as the mean percentage load reduction compared to untreated (vehicle-only) control animals. Reference drugs miltefosine and/or AmBisome were used as positive controls and comparators.
# [2] = tested on: L. infantum MHOM/MA67/ITMAP263; experiment: Acute mouse infection model (VL); format: in vivo, BALB/c mice; details: for decrease in the liver parasite burden compared to control animals: 5 consecutive days
# Experimental: as §1
# In vivo pharmacokinetics [3] = experiment: In vivo pharmacokinetics; design: species or system male Sprague Dawley rats; details: for Vd: read-out: Plasma Vss
# Experimental: Single dose intravenous (IV) pharmacokinetic (PK) studies in male Sprague Dawley rats and IV and oral PK studies in female BALB/c mice were conducted at Monash University. […] Blood was sampled via a cannula implanted in the carotid artery (also on the day prior to dosing) at pre-determined time points up to 24 h post-dose. Samples were transferred to vials containing heparin as an anticoagulant, gently mixed and centrifuged, and plasma separated for subsequent quantitative analysis using LC-MS. […] A dose of 25 mg/kg prepared in an aqueous suspension vehicle containing 0.5% hydroxypropyl methylcellulose, 0.5% benzyl alcohol and 0.4% polysorbate 80 (0.2 mL per mouse) was also dosed via oral gavage. Mouse blood was sampled via submandibular bleed up to 24 h post-dose (n=2 mice per time point, n=3 samples per mouse) into vials containing heparin and plasma was separated for quantitative analysis as described above.
# (§2) Additional PK studies were also conducted by WuXi AppTec Co, Ltd (Shanghai, China) according to protocols reviewed and approved by DNDi. […] IV and oral formulations for rats, mice and hamsters were the same as described above. For dogs, the IV dose was administered in saline containing 2% DMSO and 3% Solutol HS-15 and the oral formulation was as described above. Blood was sampled up to 48 h post-dose into vials containing potassium EDTA as an anticoagulant, proteins were precipitated with acetonitrile and plasma was separated and assayed by LC-MS.
# (§3) Single dose pharmacokinetic parameters (clearance, volume of distribution and half-life) were initially estimated using non-compartmental methods and oral bioavailability was calculated using the ratio of the dose corrected AUC after oral dosing relative to that after IV administration. Nominal doses were used in the calculations unless the measured dose differed by more than 15% from the nominal dose, in which case the measured dose was used. Where a full concentration versus time profile was obtained from a single animal, parameters were estimated for each animal and mean and standard deviations calculated. In the case of mice where sparse sampling was used with multiple animals per time point, the data analysis was conducted using the mean profile.
# In vivo pharmacokinetics [4] = experiment: In vivo pharmacokinetics; design: species or system female golden Syrian hamsters; details: for AUC(0-t): read-out: AUC0-24 (first dose); for AUC: read-out: AUC96-120 (last dose)
# Experimental: as §2
# as §3, with “Nominal doses were used in the calculations unless the measured dose differed by more than 15% from the nominal dose, in which case the measured dose was used.” left out
# CYP2C9 = target: T1, CYP2C9 (Homo sapiens, UniProt P11712); experiment: Cytochrome P450 inhibition, human liver microsomes; format: in vitro ADME
# T1 construct: incubation of isoform-specific substrates with human liver microsomes; from tissue; host or cells: human liver microsomes
# Text: The formation of known metabolites mediated by a specific CYP isoform was monitored. CYP isoform-specific pathways (and positive control inhibitors) included CYP1A2: phenacetin O-deethylation (furafylline), CYP2B6: bupropion hydroxylation (PPP), CYP2C8: amodiaquine deethylation (quercetin) CYP2C9: tolbutamide methylhydroxylation (sulfaphenazole), CYP2C19: (S)-mephenytoin 4’-hydroxylation (ticlopidine), CYP2D6: dextromethorphan O-demethylation (quinidine), and CYP3A: midazolam 1’-hydroxylation and testosterone 6β-hydroxylation (ketoconazole). […] The organic solvent content was maintained at less than 1% (v/v). NADPH was added to initiate the reaction which was then quenched by the addition of acetonitrile containing internal standard at specified times. Concentrations of the isoform-specific metabolites were quantified by LC-MS (Waters Xevo TQD triple quadrupole MS coupled to a Waters Acquity UPLC system) relative to calibration standards prepared in pre-quenched microsomal matrix.
# Time dependent inhibition was assessed using an “IC50 shift” method based on a previous publication ([44]). […] A shift in the IC50 in the presence of NADPH (relative to the absence) was used as an indication of time dependent inhibition. Reference direct and time-dependent inhibitors were included in the assays.
# [5] = L. donovani MHOM/ NP/2003/ BPK282/0-cl4
# [6] = L. donovani MHOM/ET/2007/LLM-1600
# [7] = L. donovani MHOM/NP/03/BPK275/0-cl18
# [8] = male, Sprague Dawley, plasma, Rat, oral 10 mg/kg
# [9] = male, Sprague Dawley, rat, plasma, rats, single oral 50 mg/kg
# [10] = male, Sprague Dawley, rat, plasma, rats, single oral 100 mg/kg
# [11] = male, Sprague Dawley, rat, plasma, rats, single oral 300 mg/kg
# [12] = female, golden Syrian, hamster, plasma, hamsters, oral 12.5 mg/kg qd, 5 days
# [13] = female, golden Syrian, hamster, plasma, hamsters, oral 25 mg/kg qd, 5 days
# T1 sequence (P11712 whole entry, canonical isoform): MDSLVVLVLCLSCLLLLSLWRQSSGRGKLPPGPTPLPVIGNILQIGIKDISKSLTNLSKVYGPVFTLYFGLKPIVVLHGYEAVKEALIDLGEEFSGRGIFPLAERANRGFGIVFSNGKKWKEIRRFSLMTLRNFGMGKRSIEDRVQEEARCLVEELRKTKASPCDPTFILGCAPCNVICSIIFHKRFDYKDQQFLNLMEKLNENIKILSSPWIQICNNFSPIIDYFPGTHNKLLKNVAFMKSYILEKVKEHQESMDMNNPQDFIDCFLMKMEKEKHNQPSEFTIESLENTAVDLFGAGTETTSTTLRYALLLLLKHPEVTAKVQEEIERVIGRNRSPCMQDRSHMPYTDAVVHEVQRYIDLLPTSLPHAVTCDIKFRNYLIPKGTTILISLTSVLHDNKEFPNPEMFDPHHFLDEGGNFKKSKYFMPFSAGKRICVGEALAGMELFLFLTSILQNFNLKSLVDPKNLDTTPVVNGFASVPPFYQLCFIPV
structure (smiles),measurement,setting,value
Cc1[nH]c2nc(N)nc(C)c2c1-c1ccc(C#N)c2c1OCO2 [DNDI-6174],EC50,L. donovani; [5],50 nM
same,EC90,L. donovani; [5],140 nM
same,EC50,L. donovani; L. donovani MHOM/ET/67/HU3,90 nM
same,EC90,L. donovani; L. donovani MHOM/ET/67/HU3,2000 nM
same,EC50,L. donovani; [6],80 nM
same,EC90,L. donovani; [6],280 nM
same,EC50,L. donovani; L. donovani MHOM/IN/80/DD8,170 nM
same,EC90,L. donovani; L. donovani MHOM/IN/80/DD8,490 nM
same,EC50,L. donovani; [7],40 nM
same,EC90,L. donovani; [7],120 nM
same,reduction in liver parasite burden,[1],> 95%
same,reduction in liver parasite burden,"[2]; 12.5 mg/kg bid or higher, 5-day dosing",> 95%
same,decrease in the liver parasite burden compared to control animals,[2]; 12.5 mg/kg bid,> 98%
same,decrease in the liver parasite burden compared to control animals,[2]; 25 mg/kg qd,> 98%
same,Cmax,In vivo pharmacokinetics [3]; [8],4210 ng/mL
same,Tmax,In vivo pharmacokinetics [3]; [8],4 h
same,bioavailability,In vivo pharmacokinetics [3]; [8],93%
same,half-life,"In vivo pharmacokinetics [3]; male, Sprague Dawley, rat, plasma, iv, 3 mg/kg, Rat, intravenous 3.0 mg/kg, Monash University, read-out: Apparent t1/2 (converted)",7.9 h
same,AUC(0-inf),"In vivo pharmacokinetics [3]; male, Sprague Dawley, rat, plasma, iv, 3 mg/kg, Rat, intravenous 3.0 mg/kg, Monash University, read-out: Plasma AUC0-inf",23600 ng·h/mL
same,clearance,"In vivo pharmacokinetics [3]; male, Sprague Dawley, rat, plasma, iv, 3 mg/kg, Rat, intravenous 3.0 mg/kg, Monash University, read-out: Plasma CL",2.12 mL/min/kg
same,Vd,"In vivo pharmacokinetics [3]; male, Sprague Dawley, rat, plasma, iv, 3 mg/kg, Rat, intravenous 3.0 mg/kg, Monash University",1.4 L/kg
same,half-life,"In vivo pharmacokinetics [3]; male, Sprague Dawley, rat, plasma, iv, 3 mg/kg, Rat, intravenous 3.0 mg/kg, WuXi AppTec, read-out: Apparent t1/2 (converted)",5.3 h
same,AUC(0-inf),"In vivo pharmacokinetics [3]; male, Sprague Dawley, rat, plasma, iv, 3 mg/kg, Rat, intravenous 3.0 mg/kg, WuXi AppTec, read-out: Plasma AUC0-inf",18500 ng·h/mL
same,clearance,"In vivo pharmacokinetics [3]; male, Sprague Dawley, rat, plasma, iv, 3 mg/kg, Rat, intravenous 3.0 mg/kg, WuXi AppTec, read-out: Plasma CL",2.95 mL/min/kg
same,Vd,"In vivo pharmacokinetics [3]; male, Sprague Dawley, rat, plasma, iv, 3 mg/kg, Rat, intravenous 3.0 mg/kg, WuXi AppTec",1.3 L/kg
same,clearance,"In vivo pharmacokinetics [3]; male, Sprague Dawley, rat, plasma, iv, 3 mg/kg, Rat, read-out: Measured in vivo CLplasma",2.5 mL/min/kg
same,half-life,"In vivo pharmacokinetics [3]; male, Sprague Dawley, rat, plasma, po, 10 mg/kg, Rat, oral 10 mg/kg, read-out: Apparent t1/2 (converted)",7 h
same,AUC(0-inf),"In vivo pharmacokinetics [3]; male, Sprague Dawley, rat, plasma, po, 10 mg/kg, Rat, oral 10 mg/kg, read-out: Plasma AUC0-∞",57700 ng·h/mL
same,AUC(0-inf),"In vivo pharmacokinetics [3]; male, Sprague Dawley, rat, plasma, po, 50 mg/kg, rats, single oral 50 mg/kg, read-out: AUC0-∞",292000 ng·h/mL
same,half-life,"In vivo pharmacokinetics [3]; male, Sprague Dawley, rat, plasma, po, 50 mg/kg, rats, single oral 50 mg/kg, read-out: T1/2 (converted)",9.05 h
same,Cmax,In vivo pharmacokinetics [3]; [9],14200 ng/mL
same,Tmax,In vivo pharmacokinetics [3]; [9],5.7 h
same,Cmax,In vivo pharmacokinetics [3]; [10],20900 ng/mL
same,Tmax,In vivo pharmacokinetics [3]; [10],17 h
same,Cmax,In vivo pharmacokinetics [3]; [11],30900 ng/mL
same,Tmax,In vivo pharmacokinetics [3]; [11],27 h
same,parent compound excreted unchanged in urine,"In vivo pharmacokinetics [3]; rats, intravenous",< 1%
same,AUC0-24 (reported in AUC0-∞ line),"In vivo pharmacokinetics [3]; rats, single oral 100 mg/kg",430000 ng·h/mL
same,AUC0-24 (reported in AUC0-∞ line),"In vivo pharmacokinetics [3]; rats, single oral 300 mg/kg",562000 ng·h/mL
same,Cmax at 5 days,In vivo pharmacokinetics [4]; [12],3530 ng/mL
same,AUC(0-t),In vivo pharmacokinetics [4]; [12],22900 ng·h/mL
same,AUC,In vivo pharmacokinetics [4]; [12],30200 ng·h/mL
same,Cmax at 5 days,In vivo pharmacokinetics [4]; [13],7790 ng/mL
same,AUC(0-t),In vivo pharmacokinetics [4]; [13],44200 ng·h/mL
same,AUC,In vivo pharmacokinetics [4]; [13],77400 ng·h/mL
same,Cmax,"In vivo pharmacokinetics [4]; female, golden Syrian, hamster, plasma, hamsters, oral 25 mg/kg qd, 5 days, read-out: Cmax (Day 1)",4560 ng/mL
same,AUC(0-t),"In vivo pharmacokinetics [4]; female, golden Syrian, hamster, plasma, hamsters, oral 50 mg/kg, single dose on day 1 only",145000 ng·h/mL
same,Cmax,"In vivo pharmacokinetics [4]; female, golden Syrian, hamster, plasma, hamsters, oral 50 mg/kg, single dose on day 1 only, read-out: Cmax (Day 1)",13200 ng/mL
same,Tmax,"In vivo pharmacokinetics [4]; female, golden Syrian, plasma, Hamster, oral 12.5 mg/kg",2.7 h
same,half-life,"In vivo pharmacokinetics [4]; female, golden Syrian, plasma, Hamster, oral 12.5 mg/kg, read-out: Apparent t1/2 (converted)",2.6 h
same,Cmax,"In vivo pharmacokinetics [4]; female, golden Syrian, plasma, Hamster, oral 12.5 mg/kg, read-out: Cmax",2870 ng/mL
same,AUC(0-inf),"In vivo pharmacokinetics [4]; female, golden Syrian, plasma, Hamster, oral 12.5 mg/kg, read-out: Plasma AUC0-∞",21200 ng·h/mL
same,Cmax (Day 1),"In vivo pharmacokinetics [4]; hamsters, oral 12.5 mg/kg qd, 5 days",2870 ng/mL
same,IC50,"CYP2C9; CYP2C9, read-out: Direct inhibition IC50",14900 nM
same,IC50,"CYP2C9; without NADPH preincubation, read-out: Time-dependent inhibition IC50",13800 nM
